Source: patent US20030202935A1, “Composition and formulations and their use as nociceptic, anti-axniolytic and anabolic agents” (priority 2000, published 2003)

Experiments:
Intracellular Adenosine = system: Intracellular Adenosine; design: species or system Fischer 344 rats; conditions: rat, in vivo, po
Procedure: Folinic acid (50 mg/kg) was administered intraperitoneally once daily for fourteen days. […] Hearts were removed from animals and flash frozen in liquid nitrogen within 10 seconds of death. Liver and lungs were removed en bloc and flash frozen within 30 seconds of death. Brain tissue was subsequently dissected.

[1] = cited from earlier work

| Compound | adenosine levels in the brain (Intracellular Adenosine) | half life [1] |
| --- | --- | --- |
| Nc1nc(=O)c2c([nH]1)NCC(CNc1ccc(C(=O)N[C@@H](CCC(=O)O)C(=O)O)cc1)N2C=O (mixture of isomers) [Folinic Acid (F.A.), folinic acid] | dramatic increase | – |
| Nc1ncnc2c1ncn2[C@@H]1O[C@H](CO)[C@@H](O)[C@H]1O [adenosine] | – | about a second |
